Reference: US20020127202A1, “Compounds and compositions for delivering active agents” (Emisphere Technologies, Inc., priority 1996, published 2002)
Where two headings read alike, the source gives them in different places.

What was measured:
[1] = In vivo delivery of heparin by oral administration in rats (APTT)
Method: In a test tube, 900 mg of carrier were dissolved in 3 mL of propylene glycol, and 0.299 g of sodium heparin was dissolved in 3 mL of water. The solutions were mixed by vortex. Sodium hydroxide (10 M) was added to the resulting mixture until a solution was obtained. The pH was then adjusted to 7.4+/−0.5 with concentrated hydrochloric acid, and the final solution was sonicated at for 30 minutes.
A group of fasted, conscious rats were administered the dosing compositions by oral gavage. Blood samples were collected by cardiac puncture following the administration of ketamine (44 mg/kg)., Heparin activity was determined by utilizing the activated partial thromboplastim time (APTT) according to the method of Henry, J. B., Clinical Diagnosis and Management by Laboratory Methods; Philadelphia, Pa.; W B Saunders (1979).
Heparin (100 mg/kg) was administered by oral gavage to rats, and heparin activity was determined according to the procedure of Example 44.

[2] = In vivo delivery of rhGH in rats (serum rhGH by ELISA); settings: oral, no carrier (0 mg/kg), rhGH dose 6 mg/kg
Method: Dosing compositions were prepared by mixing the modified amino acids and recombinant human growth hormone (rhGH) as listed in Table 1 below in a phosphate buffer solution at a pH of about 7-8.
Rats were administered the dosing composition by sublingual, oral gavage, intraduodenal administration, or colonic administration. Delivery was evaluated by using an ELISA assay for rhGH from Medix Biotech, Inc. For intracolonic administration, a sample was prepared and dosed to fasted rats at 25 mg/kg of carrier in a buffered solution containing propylene glycol (0-50%) and 1 mg/kg rhGH.

[3] = Delivery agent enhancement of rhGH bioavailability, subcutaneous administration in rats
Method: The delivery agents were reconstituted with distilled water and adjusted to pH 7.2-8.0 with either aqueous hydrochloric acid or aqueous sodium hydroxide. A stock solution of rhGH was prepared by mixing rhGH, D-mannitol and glycine and dissolving this mixture in 2% glycerol/water. The stock solution was then added to the delivery agent solution. Several delivery agent to active agent ratios were studied.
Male Sprague-Dawley rats weighing 200-250g were fasted for 24 hours and administered ketamine (44 mg/kg) and chlorpromazine (1.5 mg/kg) 15 minutes prior to dosing. The rats were administered one of the dosing solutions described above by subcutaneous injection, intranasal instillation, or sublingual instillation. Blood samples were collected serially from the tail artery for serum calcium concentration determination or serum rhGH concentrations. The dose of rhGH administered in these experiments was 0.1 mg/kg.
Serum rhGH concentrations were quantified by an rhGH enzyme immunoassay test kit.

[4] = In vivo delivery of salmon calcitonin in rats (serum calcium)
Method: 400 mg of carrier were added to 2.9 mL of 25% aqueous propylene glycol. The resultant solution was stirred, and the pH was adjusted to 7.2 with sodium hydroxide (1.0 N). Water was added to bring the total volume to […]. […] Calcitonin (10 μg) was added to the solution. The total calcitonin concentration was 2.5 μg/mL.
For each sample a group of fasted rats were anesthetized. The rats were administered the dosing composition by oral gavage, intracolonic instillation, or intraduodenal administration. Blood samples were collected serially from the tail artery. Serum calcium was determined by testing with a Calcium Kit (Sigma Chemical Company, St. Louis, Mo., USA).

[5] = In vivo delivery of interferon α2b by intracolonic administration in rats (ELISA); settings: carrier dose 100 mg/kg, interferon dose 250 μg/kg
Method: Propylene glycol (0-25%) was added as a solubilizing agent, if necessary.
Rats were administered the dosing composition by oral gavage, intraduodenal administration, or intracolonic administration.

[6] = Delivery agent enhancement of parathyroid hormone bioavailability in rats (serum PTH radioimmunoassay)
Method: (§1) The delivery agents were reconstituted with distilled water and/or propylene glycol and adjusted to an apparent pH of 7.2-8.0 with either aqueous hydrochloric acid or aqueous sodium hydroxide. A stock solution of parathyroid hormone was prepared by dissolving parathyroid hormone in water. The parathyroid hormone solution was then added to the delivery agent solution. Several different delivery agent to active agent ratios were studied.
(§2) Male Sprague-Dawley rats weighing 200-250 g were fasted for 24 hours and administered ketamine (44 mg/kg) and chlorpromazine (1.5 mg/kg) 15 minutes prior to dosing. The rats were administered one of the dosing solutions described above by oral gavage or intracolonic instillation. Blood samples were collected serially from the tail artery for serum determination of parathyroid hormone concentration. Serum parathyroid hormone concentrations were quantified by a parathyroid hormone radioimmunoassay test kit.
(§3) Oral administration of solutions containing parathyroid hormone (PTH) and the non-α-amino acid delivery agents was tested in vivo in rats.

[7] = Delivery agent enhancement of salmon calcitonin bioavailability, subcutaneous administration in rats (serum calcium); format: in vivo, Male Sprague-Dawley rats; settings: sCT 0.2 μg/kg
[8] = rat, in vivo, 100 mg/kg
Method: as §1, §2, §3

[9] = carrier dose 300 mg/kg, heparin dose 100 mg/kg
[10] = intracolonic, carrier dose 100 mg/kg, PTH dose 25 μg/kg
[11] = subcutaneous, delivery agent dose 1.0 mg/kg, rhGH 0.1 mg/kg
[12] = subcutaneous, delivery agent dose 2.5 mg/kg, rhGH 0.1 mg/kg

## O=C(O)CCCNC(=O)C1CCCCCC1 [Compound II]
[1]; [9]
  Mean Peak APTT: 25.45 ± 2.8 s

## rhGH: recombinant human growth hormone, active agent dosed alone (Comparative Examples 5A, 16A)
[2]
  Mean Peak Serum Levels of rhGH: <10 ± 10 ng/mL
[3]; no delivery agent (0.0 mg/kg), rhGH alone
  Peak Serum [rhGH]: 4 ± 2 ng/mL

## O=C(O)CCCNC(=O)C1CCCCC1 [Compound V]
[1]; [9]
  Mean Peak APTT: 87.4 ± 34.1 s
[4]; oral, carrier dose 400 mg/kg, calcitonin dose 10 μg/kg
  Maximum Decrease in Serum Calcium: 18.35 +/− 2.87 % below baseline

## O=C(O)CCCCCCCNC(=O)/C=C/c1ccccc1O [Compound XXI]
[5]
  Mean Peak Serum Levels of Interferon: 4238 ± 2789 pg/mL

## O=C(O)CCCCCCCCCNC(=O)c1ccccc1O [Compound XXXI]
[1]; carrier dose 50 mg/kg, heparin dose 10 mg/kg
  Mean Peak APTT: 50.85 ± 9.1 s
[1]; carrier dose 50 mg/kg, heparin dose 25 mg/kg
  Mean Peak APTT: 127.56 ± 22.97 s

## O=C(O)CCCCCCCNC(=O)c1ccccc1O [CXXIII]
[6]; [10]
  Peak Serum [PTH]: 130 ± 20 pg/mL
[6]; oral, carrier dose 250 mg/kg, PTH dose 25 μg/kg
  Peak Serum [PTH]: 20 ± 6 pg/mL
[6]; oral, carrier dose 250 mg/kg, PTH dose 100 μg/kg
  Peak Serum [PTH]: 75 ± 25 pg/mL
[3]; [11]
  Peak Serum [rhGH]: 22 ± 3 ng/mL
[3]; [12]
  Peak Serum [rhGH]: 25 ± 5 ng/mL
[3]; subcutaneous, delivery agent dose 25 mg/kg, rhGH 0.1 mg/kg
  Peak Serum [rhGH]: 30 ± 6 ng/mL
[7]; delivery agent dose 2 μg/kg
  Percent Decrease in Serum Calcium: 17 ± 3%
[7]; delivery agent dose 20 μg/kg
  Percent Decrease in Serum Calcium: 25 ± 4%
[7]; delivery agent dose 200 μg/kg
  Percent Decrease in Serum Calcium: 25 ± 5%
[7]; delivery agent dose 2000 μg/kg
  Percent Decrease in Serum Calcium: 26 ± 5%

## O=C(O)CCCCCCCNC(=O)c1ccccc1O [Compound XIX]
[1]; [9]
  Mean Peak APTT: 119.99 ± 56.3 s
[4]; intracolonic, carrier dose 10 mg/kg, calcitonin dose 3 μg/kg
  Maximum Decrease in Serum Calcium: 26.49 +/− 12.3 % below baseline
[4]; oral, carrier dose 200 mg/kg, calcitonin dose 7.5 μg/kg
  Maximum Decrease in Serum Calcium: 25.48 +/− 4.7 % below baseline

## O=C(O)CCCCCCNC(=O)c1ccccc1O [CXI]
[3]; [12]
  Peak Serum [rhGH]: 16 ± 2 ng/mL
[7]; delivery agent dose 20 μg/kg
  Percent Decrease in Serum Calcium: 21 ± 4%

## COc1ccccc1/C=C/C(=O)Nc1ccc(CCC(=O)O)cc1 [Compound LXXXVI]
[8]
  Peak Serum [PTH]: 40 ± 12 pg/mL

## CCC(C(=O)NCCCC(=O)O)C1CCCCC1 (stereo not shown) [Compound III]
[1]; [9]
  Mean Peak APTT: 38.64 ± 17 s

## O=C(O)CCCCCCCNC(=O)c1cccc([N+](=O)[O-])c1 [Compound CXV]
[3]; [11]
  Peak Serum [rhGH]: 25 ± 3 ng/mL

## O=C(O)CCCCCCCNC(=O)c1ccccc1Br [CXIV]
[6]; [10]
  Peak Serum [PTH]: 65 ± 15 pg/mL
[7]; delivery agent dose 20 μg/kg
  Percent Decrease in Serum Calcium: 20 ± 3%

## CN(C)c1cccc(C(=O)Nc2ccc(CCCC(=O)O)cc2)c1 [LVIII]
[8]
  Peak Serum [PTH]: 145 ± 25 pg/mL

## O=C(O)CCCc1ccc(NC(=O)CCOc2ccccc2)cc1 [CVIII]
[8]
  Peak Serum [PTH]: 115 ± 20 pg/mL

## COc1ccccc1/C=C/C(=O)Nc1ccc(CCCC(=O)O)cc1 [LXXXIX]
[8]
  Peak Serum [PTH]: 70 ± 15 pg/mL
